Reference: ChEMBL document CHEMBL1153957, “Novel small molecule activators of beta-catenin-mediated signaling pathway: structure-activity relationships of indirubins” (Bioorg Med Chem Lett, 2009)
Calls of active or inactive are those of the source. The calls are words filed in the database; no cut-off is given here.

How the values were obtained:
Format in all cases: cell-based
Conditions in all cases: Homo sapiens
[1] = Activation of Wnt signaling pathway in HEK293 cells assessed as increase in beta-catenin-mediated Tcf/Lef transcriptional activity at 250 nM after 24 hrs by dual luciferase reporter gene assay relative to control
[2] = Activation of Wnt signaling pathway in HEK293 cells assessed as increase in phosphorylation at Ser9 of GSK3-beta at 250 nM after 24 hrs by Western blot analysis
[3] = Activation of Wnt signaling pathway in HEK293 cells assessed as decrease in phosphorylation at Tyr216 of GSK3-beta at 250 nM after 24 hrs by Western blot analysis
[4] = Activation of Wnt signaling pathway in HEK293 cells assessed as decrease in phosphorylation at […]/37/Thr41 of […] at 250 nM after 24 hrs by Western blot analysis
[5] = Activation of Wnt signaling pathway in HEK293 cells assessed as increase in beta-catenin-mediated Tcf/Lef transcriptional activity after 24 hrs by dual luciferase reporter gene

Row | Structure (SMILES) | fold change (FC) [1] | also measured
1 | O=C1Nc2ccccc2/C1=C1/Nc2ccccc2C1=O | 2.04 | 
2 | O=C1Nc2ccc([N+](=O)[O-])cc2/C1=C1/Nc2ccc(Br)cc2/C1=N/O | 1.66 | 
3 | CC(C)(C)C(=O)Nc1ccc2c(c1)/C(=C1/Nc3ccccc3/C1=N\O)C(=O)N2 | 1.51 | 
4 | CC(=O)Nc1ccc2c(c1)/C(=C1/Nc3ccccc3/C1=N\O)C(=O)N2 | 1.89 | 
5 | O=C1Nc2ccc(Cl)cc2/C1=C1/Nc2ccccc2/C1=N\O | 3.46 | 
6 | O=Nc1c(-c2c(O)[nH]c3ccc([N+](=O)[O-])cc23)[nH]c2ccccc12 | 4.2 | Activity [2]: Active; Activity [3]: Active; Activity [4]: Active
7 | O=C1Nc2cc(Br)ccc2/C1=C1/Nc2ccccc2/C1=N\O | 2.7 | Activity [5]: Dose-dependent effect
